# From the supplement of paper PMC10307832
# Tests used:
# Assay in all cases: relative viability (nuclei count vs DMSO), 5 days (fraction); higher = more cells survive
# [1] = compound: CS(=O)(=O)CCNCc1ccc(-c2ccc3ncnc(Nc4ccc(OCc5cccc(F)c5)c(Cl)c4)c3c2)o1 [Lapatinib] + C[C@]1(O)C[C@@H](c2nc(-c3ccc4ccc(-c5ccccc5)nc4c3)c3c(N)nccn32)C1 [Linsitinib] (partner 1 µM)
# Method in brief: (§1)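 Five library-drug doses in √10 steps were combined with a fixed anchor-drug dose, or a single drug was given alone, by pin tool to lung cancer cell lines in 1536-well plates the day after seeding. Nuclei were stained and counted after 5 days. Relative viability is the nuclei count in treated wells over that in vehicle wells, taken as the median of duplicate plates.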
# [2] = compound: CS(=O)(=O)CCNCc1ccc(-c2ccc3ncnc(Nc4ccc(OCc5cccc(F)c5)c(Cl)c4)c3c2)o1 [Lapatinib] + CC(=O)c1c(C)c2cnc(Nc3ccc(N4CCNCC4)cn3)nc2n(C2CCCC2)c1=O [Palbociclib] (partner 0.5 µM)
# Method in brief: as §1
# [3] = compound: CC1=NC=CC(=C1)C2=CC=C(C=C2)CC(=O)NC3=CC=C(C=C3)C4=CN=CC=C4 [Wnt-C59] + NC(=O)Nc1cc(-c2cccc(F)c2)sc1C(=O)N[C@H]1CCCNC1 [AZD7762] (partner 0.2 µM)
# Method in brief: as §1
# [4] = compound: CC1=NC=CC(=C1)C2=CC=C(C=C2)CC(=O)NC3=CC=C(C=C3)C4=CN=CC=C4 [Wnt-C59] + CC(=O)Nc1cccc(-n2c(=O)n(C3CC3)c(=O)c3c(Nc4ccc(I)cc4F)n(C)c(=O)c(C)c32)c1 [Trametinib] (partner 0.02 µM)
# Method in brief: as §1
Cell Line,relative viability ([1]; first compound 0.02 µM),relative viability ([1]; first compound 0.06325 µM),relative viability ([1]; first compound 0.2 µM),relative viability ([1]; first compound 0.6325 µM),relative viability ([1]; first compound 2 µM),relative viability ([2]; first compound 0.02 µM),relative viability ([2]; first compound 0.06325 µM),relative viability ([2]; first compound 0.2 µM),relative viability ([2]; first compound 0.6325 µM),relative viability ([2]; first compound 2 µM),relative viability ([3]; first compound 0.001 µM),relative viability ([3]; first compound 0.01 µM),relative viability ([3]; first compound 0.03162 µM),relative viability ([3]; first compound 0.1 µM),relative viability ([4]; first compound 0.001 µM),relative viability ([4]; first compound 0.01 µM),relative viability ([4]; first compound 0.03162 µM),relative viability ([4]; first compound 0.1 µM)
NCI-H460,0.736,0.776,0.843,0.573,0.674,0.116,0.168,0.149,0.149,0.118,0.554,0.605,0.568,0.673,0.0894,0.111,0.191,0.156
CAL-12T,0.761,0.83,0.634,0.725,0.579,0.197,0.304,0.319,0.329,0.137,0.595,0.588,0.505,0.631,0.327,0.378,0.367,0.381
NCI-H650,–,0.841,0.793,0.567,0.875,–,0.315,0.346,0.319,0.334,0.883,1.03,0.969,1.24,0.984,0.934,1.08,1.05
NCI-H2085,0.919,0.89,0.811,0.813,0.62,0.485,0.462,0.474,0.445,0.338,0.901,0.865,1.06,0.957,0.599,0.577,0.58,0.614
NCI-H2126,–,0.658,0.685,0.645,0.593,0.38,0.349,0.346,0.348,0.319,1.01,1.02,1.02,1.05,0.579,0.532,0.573,0.581
NCI-H1666,0.822,0.681,0.704,0.611,0.248,0.63,0.632,0.674,0.65,0.633,0.95,0.819,0.82,0.857,0.894,0.762,0.94,0.79
NCI-H727,0.259,0.207,0.278,0.256,0.236,0.65,–,0.653,0.618,0.557,0.776,0.528,0.598,0.687,0.399,0.369,0.355,0.406
LC-2-ad,–,0.817,0.799,0.694,0.585,–,0.522,0.527,0.501,0.476,0.851,0.829,0.882,0.865,0.904,0.874,0.905,0.9
HCC-827,0.944,0.986,0.928,1.05,0.936,0.435,0.433,0.461,0.257,0.415,0.274,0.27,0.219,0.175,0.545,0.477,0.48,0.547
HCC-366,–,0.404,0.702,0.746,0.472,–,0.334,0.339,0.356,0.323,0.271,0.247,0.286,0.322,0.398,0.4,0.385,0.341
EPLC-272H,–,0.988,1.11,0.959,1.01,–,0.288,0.291,0.299,0.261,0.246,0.247,0.289,0.247,0.275,0.277,0.316,0.298
NCI-H322M,0.931,0.839,0.803,0.767,0.592,0.464,0.432,0.455,0.446,0.434,0.575,0.577,0.511,0.536,0.581,0.484,0.412,0.504
NCI-H1944,–,–,0.959,0.767,0.656,0.304,0.253,0.265,0.275,0.225,0.474,0.482,0.452,0.534,0.433,0.449,0.431,0.369
NCI-H1755,0.983,0.963,0.982,0.95,0.714,0.475,0.463,0.423,0.417,0.48,0.498,0.433,0.436,0.473,0.797,0.792,0.759,0.719
LXF-289,0.983,0.913,0.982,0.902,0.816,0.615,0.588,0.588,0.577,0.526,1.06,1.07,1.09,1.07,0.617,0.629,0.73,0.632
LCLC-97TM1,–,–,0.186,0.198,0.187,–,0.135,0.248,0.19,0.233,0.287,0.303,0.362,0.206,0.216,0.201,0.22,0.193
NCI-H2347,0.963,0.97,1.01,0.929,0.926,0.385,0.45,0.456,0.378,0.386,0.726,0.738,0.779,0.698,0.357,0.271,0.318,0.194
PC-3 [JPC-3],–,1.01,0.993,0.994,0.873,–,0.589,–,0.546,0.444,0.883,1.05,0.758,0.927,0.78,0.736,0.623,0.785
